Earlier results on 2 compounds are cited in patent US20260355183A1, “METHODS OF TREATING HEPATIC-ONLY METASTATIC UVEAL MELANOMA” (IDEAYA BIOSCIENCES, INC., priority 2023, published 2026).

Data set [1] concerns ocular melanoma liver metastases. Particulars: in vivo.
The next data set concerns certain PKC isototypes. Particulars: background statement.
The subject of data set [2] is uveal melanoma cells harboring GNAQ mutations. As to conditions: by targeting PKC/ERK1/2 and PKC/NF-xB pathways; X. Wu et al., Mol. Cancer Ther. 11, 1905-1914, 2012.

For the compound `N[C@@H](Cc1ccc(N(CCCl)CCCl)cc1)C(=O)O` [melphalan], in data set [1], the DCR is reported as 76.3%.

For the compound `CN1CCN(c2nc(C3=C(c4c[nH]c5ccccc45)C(=O)NC3=O)c3ccccc3n2)CC1` [sotrastaurin], in the data set on certain PKC isototypes, the “activity against PKC isotypes” value is “activity against certain PKC isototypes”. In data set [2], the “inhibition of growth of uveal melanoma cells harboring GNAQ mutations” value is “selectively inhibit the growth of uveal melanoma cells harboring GNAQ mutations”.
